Measurements taken from patent US11331271B2, “Buccal, sublingual and intranasal delivery of fospropofol” (The Johns Hopkins University, priority 2016, dated 2022).

Columns and labels:
healthy volunteers = test: Human Study 2: treatment-emergent adverse events (TEAE), safety, Modified OAA/S, DSST, BIS; type: in vivo; details: for DSST mean change from baseline: 1 h post-treatment
Description: In human study 1, fospropofol disodium was formulated as a sterile aqueous solution at a concentration of 20 mg/mL. Each vial provided contained 20 mL of solution, suitable for intravenous injection. Fospropofol was administered as a single dose of 400 mg orally, directly into the duodenum by gastroscopy or intravenously over 10 min. In human study 2, fospropofol disodium in capsules (200 mg) or matching placebo was administered orally.
A second single ascending dose study was subsequently performed to assess the safety, tolerability, and pharmacokinetics of oral administration of fospropofol as a capsule. This was a double-blind, randomized, crossover, placebo-controlled, single ascending dose study. Ten healthy volunteers were enrolled, 6 males and 4 females between 18 and 45 years of age inclusive with a body mass index between 18 and 28 kg/m^2. Each subject received four ascending oral doses of fospropofol disodium (200, 600, 1,000 and 1,200 mg) and one of placebo. Placebo was administered randomly, in one of the five periods. Subjects stayed in the clinical research unit over 3 days per treatment for five consecutive treatments. Between treatments, there were wash-out periods of at least 6 days, during which interim safety evaluations were made to assess the safety of the subsequent higher doses. Fopropofol disodium in capsules (200 mg) or matching placebo was administered orally. Pharmacokinetic parameters, safety and pharmacodynamic effect were assessed in a manner similar to that in Study 1 described above. In addition, the digit symbol substitution test (DSST) and BIS Index (a commercially available EEG derived measure of anesthesia and sedation, Coviden, Mansfield, Mass., USA) were added as additional pharmacodynamics measures.

[1] = Intranasal fospropofol in rats: plasma and brain levels; type: in vivo, rat
[2] = rat, oral propofol; cited from earlier work
Caco-2 cell monolayers = details: cited from earlier work
[3] = 200 mg oral, listed as Fospropofol
[4] = 600 mg oral, listed as Fospropofol
[5] = 1000 mg oral, listed as Fospropofol
[6] = 1200 mg oral, listed as Fospropofol

CC(C)c1cccc(C(C)C)c1OCOP(=O)(O)O [fospropofol]
80-98%: BIS score range (healthy volunteers; 200 mg)
40%: TEAE somnolence, subjects (%) (healthy volunteers; 200 mg oral) | TEAE somnolence, subjects (%) (healthy volunteers; 1000 mg oral) | subjects with Modified OAA/S score of 4 (healthy volunteers; 1,200 mg, 1.5-h time point)
(80%): TEAE TOTAL, subjects (%) (healthy volunteers; [3]) | TEAE TOTAL, subjects (%) (healthy volunteers; [5]) | TEAE somnolence, subjects (%) (healthy volunteers; [6])
(50%): TEAE paraesthesia, subjects (%) (healthy volunteers; 600 mg oral) | TEAE somnolence, subjects (%) (healthy volunteers; [4])
No subject experienced a SAE: serious adverse events (healthy volunteers; 200-1,200 mg oral)
18: TEAE TOTAL, events (E) (healthy volunteers; 200 mg oral)
5: TEAE GENERAL DISORDERS AND ADMINISTRATION SITE CONDITIONS, events (E) (healthy volunteers; 600 mg oral)
appreciable plasma concentrations: fospropofol in plasma after intranasal fospropofol [1]
16: TEAE NERVOUS SYSTEM DISORDERS, events (E) (healthy volunteers; 600 mg oral)
(70%): TEAE NERVOUS SYSTEM DISORDERS, subjects (%) (healthy volunteers; 200 mg oral) | TEAE NERVOUS SYSTEM DISORDERS, subjects (%) (healthy volunteers; 600 mg oral) | TEAE NERVOUS SYSTEM DISORDERS, subjects (%) (healthy volunteers; 1000 mg oral)
28: TEAE TOTAL, events (E) (healthy volunteers; 1000 mg oral)
50%: TEAE somnolence, subjects (%) (healthy volunteers; 600 mg oral) | nausea, rate of occurrence (healthy volunteers; Study 2, all treatments) | phlebitis superficial, rate of occurrence (healthy volunteers; Study 2, all treatments)
71-98%: BIS score range (healthy volunteers; 600 mg)
(90%): TEAE TOTAL, subjects (%) (healthy volunteers; [4]) | TEAE NERVOUS SYSTEM DISORDERS, subjects (%) (healthy volunteers; 1200 mg oral) | TEAE TOTAL, subjects (%) (healthy volunteers; [6])
1: subjects with somnolence considered severe (healthy volunteers; 1000 mg oral) | subjects with somnolence considered severe (healthy volunteers; 1200 mg oral)
26: TEAE TOTAL, events (E) (healthy volunteers; 1200 mg oral)
80%: TEAE TOTAL, subjects (%) (healthy volunteers; 200 mg oral) | TEAE TOTAL, subjects (%) (healthy volunteers; 1000 mg oral) | TEAE somnolence, subjects (%) (healthy volunteers; 1200 mg oral)
2: TEAE GASTROINTESTINAL DISORDERS, events (E) (healthy volunteers; 200 mg oral)
13: TEAE NERVOUS SYSTEM DISORDERS, events (E) (healthy volunteers; 1200 mg oral)
(10%): TEAE EYE DISORDERS, subjects (%) (healthy volunteers; 200 mg oral) | TEAE GASTROINTESTINAL DISORDERS, subjects (%) (healthy volunteers; 200 mg oral) | TEAE GENERAL DISORDERS AND ADMINISTRATION SITE CONDITIONS, subjects (%) (healthy volunteers; 200 mg oral) | TEAE INFECTIONS AND INFESTATIONS, subjects (%) (healthy volunteers; 200 mg oral) | TEAE MUSCULOSKELETAL AND CONNECTIVE DISORDERS, subjects (%) (healthy volunteers; 200 mg oral) | TEAE RESPIRATORY THORACIC AND MEDIASTINAL DISORDERS, subjects (%) (healthy volunteers; 200 mg oral) | TEAE VASCULAR DISORDERS, subjects (%) (healthy volunteers; 200 mg oral) | TEAE abdominal pain, subjects (%) (healthy volunteers; 200 mg oral) | TEAE eye irritation, subjects (%) (healthy volunteers; 200 mg oral) | TEAE feeling hot, subjects (%) (healthy volunteers; 200 mg oral) | TEAE nausea, subjects (%) (healthy volunteers; 200 mg oral) | TEAE pharyngolaryngeal pain, subjects (%) (healthy volunteers; 200 mg oral) | TEAE rhinitis, subjects (%) (healthy volunteers; 200 mg oral) | TEAE sensation of heaviness, subjects (%) (healthy volunteers; 200 mg oral) | TEAE vein pain, subjects (%) (healthy volunteers; 200 mg oral) | TEAE somnolence, subjects (%) (healthy volunteers; [3]) | TEAE PSYCHIATRIC DISORDERS, subjects (%) (healthy volunteers; 600 mg oral) | TEAE REPRODUCTIVE SYSTEM AND BREAST DISORDERS, subjects (%) (healthy volunteers; 600 mg oral) | TEAE RESPIRATORY THORACIC AND MEDIASTINAL DISORDERS, subjects (%) (healthy volunteers; 600 mg oral) | TEAE VASCULAR DISORDERS, subjects (%) (healthy volunteers; 600 mg oral) | TEAE abdominal pain, subjects (%) (healthy volunteers; 600 mg oral) | TEAE bowel sounds abnormal, subjects (%) (healthy volunteers; 600 mg oral) | TEAE dysgeusia, subjects (%) (healthy volunteers; 600 mg oral) | TEAE euphoric mood, subjects (%) (healthy volunteers; 600 mg oral) | TEAE nausea, subjects (%) (healthy volunteers; 600 mg oral) | TEAE perineal pain, subjects (%) (healthy volunteers; 600 mg oral) | TEAE pharyngolaryngeal pain, subjects (%) (healthy volunteers; 600 mg oral) | TEAE phlebitis superficial, subjects (%) (healthy volunteers; 600 mg oral) | TEAE proctalgia, subjects (%) (healthy volunteers; 600 mg oral) | TEAE CARDIAC DISORDERS, subjects (%) (healthy volunteers; 1000 mg oral) | TEAE REPRODUCTIVE SYSTEM AND BREAST DISORDERS, subjects (%) (healthy volunteers; 1000 mg oral) | TEAE RESPIRATORY THORACIC AND MEDIASTINAL DISORDERS, subjects (%) (healthy volunteers; 1000 mg oral) | TEAE dysphagia, subjects (%) (healthy volunteers; 1000 mg oral) | TEAE fatigue, subjects (%) (healthy volunteers; 1000 mg oral) | TEAE palpitations, subjects (%) (healthy volunteers; 1000 mg oral) | TEAE paraesthesia oral, subjects (%) (healthy volunteers; 1000 mg oral) | TEAE perineal pain, subjects (%) (healthy volunteers; 1000 mg oral) | TEAE throat irritation, subjects (%) (healthy volunteers; 1000 mg oral) | TEAE PSYCHIATRIC DISORDERS, subjects (%) (healthy volunteers; 1200 mg oral) | TEAE REPRODUCTIVE SYSTEM AND BREAST DISORDERS, subjects (%) (healthy volunteers; 1200 mg oral) | TEAE RESPIRATORY THORACIC AND MEDIASTINAL DISORDERS, subjects (%) (healthy volunteers; 1200 mg oral) | TEAE VASCULAR DISORDERS, subjects (%) (healthy volunteers; 1200 mg oral) | TEAE defecation urgency, subjects (%) (healthy volunteers; 1200 mg oral) | TEAE dyspnoea, subjects (%) (healthy volunteers; 1200 mg oral) | TEAE euphoric mood, subjects (%) (healthy volunteers; 1200 mg oral) | TEAE fatigue, subjects (%) (healthy volunteers; 1200 mg oral) | TEAE headache, subjects (%) (healthy volunteers; 1200 mg oral) | TEAE paraesthesia oral, subjects (%) (healthy volunteers; 1200 mg oral) | TEAE perineal pain, subjects (%) (healthy volunteers; 1200 mg oral) | TEAE vein pain, subjects (%) (healthy volunteers; 1200 mg oral)
10: TEAE NERVOUS SYSTEM DISORDERS, events (E) (healthy volunteers; 200 mg oral)
≥ 80%: subjects with Modified OAA/S score of 5 (healthy volunteers; at most time points, each treatment group)
−13: DSST mean change from baseline (healthy volunteers; 1,200 mg)
90%: TEAE TOTAL, subjects (%) (healthy volunteers; 600 mg oral) | TEAE TOTAL, subjects (%) (healthy volunteers; 1200 mg oral)
70-98%: BIS score range (healthy volunteers; 1,000 mg) | BIS score range (healthy volunteers; 1,200 mg)
(20%): TEAE paraesthesia, subjects (%) (healthy volunteers; 200 mg oral) | TEAE dizziness, subjects (%) (healthy volunteers; 600 mg oral) | TEAE fatigue, subjects (%) (healthy volunteers; 600 mg oral) | TEAE headache, subjects (%) (healthy volunteers; 600 mg oral) | TEAE feeling hot, subjects (%) (healthy volunteers; 1000 mg oral) | TEAE headache, subjects (%) (healthy volunteers; 1000 mg oral) | TEAE nausea, subjects (%) (healthy volunteers; 1200 mg oral)
3: TEAE paraesthesia, events (E) (healthy volunteers; 200 mg oral) | TEAE headache, events (E) (healthy volunteers; 600 mg oral) | lowest Modified OAA/S score (healthy volunteers; 1,000 mg, Subject 003, 1 and 1.5 h after treatment)
no changes: laboratory values, vital signs, ECGs, physical examinations (healthy volunteers; 200-1,200 mg oral)
7: TEAE paraesthesia, events (E) (healthy volunteers; 1000 mg oral)
29: TEAE TOTAL, events (E) (healthy volunteers; 600 mg oral)
mild or moderate: severity of most TEAEs (healthy volunteers; Study 2)
(30%): TEAE paraesthesia oral, subjects (%) (healthy volunteers; 200 mg oral) | TEAE GASTROINTESTINAL DISORDERS, subjects (%) (healthy volunteers; 600 mg oral) | TEAE feeling hot, subjects (%) (healthy volunteers; 600 mg oral) | TEAE GENERAL DISORDERS AND ADMINISTRATION SITE CONDITIONS, subjects (%) (healthy volunteers; 1000 mg oral) | TEAE VASCULAR DISORDERS, subjects (%) (healthy volunteers; 1000 mg oral) | TEAE nausea, subjects (%) (healthy volunteers; 1000 mg oral) | TEAE phlebitis superficial, subjects (%) (healthy volunteers; 1000 mg oral) | TEAE GASTROINTESTINAL DISORDERS, subjects (%) (healthy volunteers; 1200 mg oral) | TEAE GENERAL DISORDERS AND ADMINISTRATION SITE CONDITIONS, subjects (%) (healthy volunteers; 1200 mg oral) | TEAE feeling hot, subjects (%) (healthy volunteers; 1200 mg oral) | TEAE paraesthesia, subjects (%) (healthy volunteers; 1200 mg oral)
60%: paresthesia, rate of occurrence (healthy volunteers; Study 2, all treatments)
(14%): TEAE INFECTIONS AND INFESTATIONS, subjects (%) (healthy volunteers; 1200 mg oral)
6: DSST mean change from baseline (healthy volunteers; 200 mg) | TEAE GENERAL DISORDERS AND ADMINISTRATION SITE CONDITIONS, events (E) (healthy volunteers; 1200 mg oral)
−5: DSST mean change from baseline (healthy volunteers; 600 mg)
−11: DSST mean change from baseline (healthy volunteers; 1,000 mg)
(60%): TEAE paraesthesia, subjects (%) (healthy volunteers; 1000 mg oral)
> 90%: mean BIS scores (healthy volunteers; all time points, all treatments)
4: TEAE GASTROINTESTINAL DISORDERS, events (E) (healthy volunteers; 600 mg oral) | TEAE VASCULAR DISORDERS, events (E) (healthy volunteers; 1000 mg oral) | TEAE phlebitis superficial, events (E) (healthy volunteers; 1000 mg oral) | TEAE feeling hot, events (E) (healthy volunteers; 1200 mg oral)
(40%): TEAE GENERAL DISORDERS AND ADMINISTRATION SITE CONDITIONS, subjects (%) (healthy volunteers; 600 mg oral) | TEAE GASTROINTESTINAL DISORDERS, subjects (%) (healthy volunteers; 1000 mg oral) | TEAE somnolence, subjects (%) (healthy volunteers; [5])
14: TEAE NERVOUS SYSTEM DISORDERS, events (E) (healthy volunteers; 1000 mg oral)

CC(C)c1cccc(C(C)C)c1O [propofol, 2,6-diisopropylphenol]
highly permeable: permeability (Caco-2 cell monolayers)
10%: bioavailability of propofol [2]
